# Where a name gives a salt, the structure may show the parent alone.
# Molecular target: T1, hITK enzyme (FLAG-tagged full-length hITK) (Homo sapiens, UniProt Q08881)
# T1 construct: strongly expressing FLAG-tagged full-length hITK in Sf9 cells; FLAG; made in house; host or cells: Sf9 insect cells (ITK); Escherichia coli (GST-SLP76 substrate)
# T1 sequence (Q08881 1-620): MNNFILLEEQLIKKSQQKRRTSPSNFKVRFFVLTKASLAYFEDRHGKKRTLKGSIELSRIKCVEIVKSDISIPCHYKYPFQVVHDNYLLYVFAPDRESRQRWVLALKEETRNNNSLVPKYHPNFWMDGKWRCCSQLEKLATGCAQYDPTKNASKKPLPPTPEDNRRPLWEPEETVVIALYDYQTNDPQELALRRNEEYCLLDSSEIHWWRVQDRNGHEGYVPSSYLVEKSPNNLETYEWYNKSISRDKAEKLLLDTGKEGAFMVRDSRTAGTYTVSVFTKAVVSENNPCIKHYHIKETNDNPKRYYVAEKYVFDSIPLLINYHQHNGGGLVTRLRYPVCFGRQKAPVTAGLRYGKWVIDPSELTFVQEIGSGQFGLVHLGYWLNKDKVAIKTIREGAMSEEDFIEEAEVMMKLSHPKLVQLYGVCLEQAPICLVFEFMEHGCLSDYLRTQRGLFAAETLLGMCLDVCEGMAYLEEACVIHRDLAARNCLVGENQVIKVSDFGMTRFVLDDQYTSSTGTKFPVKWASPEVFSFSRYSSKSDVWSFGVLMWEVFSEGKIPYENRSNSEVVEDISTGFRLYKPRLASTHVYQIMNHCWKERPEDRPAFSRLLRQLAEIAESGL
# Assay: ITK inhibitory activity (HTRF kinase assay, biotinylated GST-SLP76 substrate)
# Assay type: biochemical
# Details: IC50 calculated from the 2 test compound concentrations sandwiching 50% ITK inhibitory rate
# Protocol: (1) Preparation of hITK Enzyme
# hITK enzyme was prepared by strongly expressing FLAG-tagged full-length hITK in Sf9 cells, and purifying same by anti-FLAG antibody column.
# (2) Preparation of biotinylated GST-SLP76
# Biotinylated GST-SLP76 was prepared by strongly expressing GST-tagged SLP76 (aa95-175) in Escherichia coli, purifying same by glutathion sepharose column and biotinylating same.
# (3) Preparation of Solution
# (i) buffer for dilution: 20 mmol/L 3-(N-morpholino)propanesulfonic acid (pH 7.0) (DOJINDO LABORATORIES), 10 mmol/L magnesium chloride (Sigma-Aldrich Corporation), 1 mmol/L dithiothreitol (Nacalai Tesque, Inc.), 0.1% gelatin (Sigma-Aldrich Corporation)
# (ii) substrate solution: 0.2 μg/mL biotinylated GST-SLP76, 100 μmol/L ATP (Sigma-Aldrich Corporation), prepared with buffer for dilution
# (iii) test compound solution: test compound, 50% dimethyl sulfoxide (DMSO), prepared with buffer for dilution
# (iv) enzyme solution: 50 ng/mL hITK enzyme, prepared with buffer for dilution
# (v) control solution: solution after removal of test compound from the mixture of the above-mentioned (i), (ii) and (iii)
# (vi) blank solution: solution after removal of ATP from the mixture of the above-mentioned (i), (ii) and (iii)
# (vii) detection buffer: 0.1 μg/mL Anti-Phosphotyrosine (PT66)-Cryptate (Cisbio), 2.5 μg/mL streptavidin-binding XL665 (Cisbio), 50 mmol/L 4-(2-hydroxyethyl)-1-piperazineethanesulfonic acid (pH 7.4) (Nacalai Tesque, Inc.), 30 mmol/L EDTA (NipponGene), 0.1% TritonX (Sigma-Aldrich Corporation), 200 mmol/L potassium fluoride (Wako Pure Chemical Industries, Ltd.), 0.05% bovine serum albumin (Sigma-Aldrich Corporation) (4) Measurement of ITK Inhibitory Activity
# A substrate solution (25 μL/well), a test compound solution (5 μL/well) and an enzyme solution (20 μL/well) were added into 96 well half-area white plate (plate, Corning Incorporated 3642) to start a kinase reaction. The plate was stood still at room temperature for 10 min. Then, a detection buffer (50 μL/well) was added to the plate. After 2 hr from the addition of the detection buffer, fluorescence intensity at 620 nm (excited at 337 nm), and fluorescence intensity at 665 nm ([…]) were measured by a fluorescence microplate reader.
# The Ratio (fluorescence intensity at 665 nm/fluorescence intensity at 620 nm×10000) of each test compound was calculated from the measured fluorescence intensity. Simultaneously, the measurement was performed using a blank solution and a control solution, and % of control value of each test compound was calculated from the following formula. % of control=(Ratio of test compound−Ratio of blank)/(Ratio of control−Ratio of blank)×100 ITK inhibitory rate (%)=100−(% of control)
# The IC50 value was calculated from the test compound concentrations at 2 points sandwiching 50% ITK inhibitory rate.
# In the test for the compounds of Examples 380 and 381, the ATP concentration of the substrate solutions was 6 μmol/L.
row,SMILES,IC50 [nM]
1,"CC(=O)N(C)c1ccc2cc(-c3n[nH]c4c3CCC(C)(C)C4)[nH]c2c1 [Example 1, N-[2-(6,6-dimethyl-4,5,6,7-tetrahydro-1H-indazol-3-yl)-1H-indol-6-yl]-N-methylacetamide]",7
2,"CN(C(=O)OCc1ccccc1)c1ccc2cc(-c3n[nH]c4c3CCC(C)(C)C4)[nH]c2c1 [Example 3, benzyl N-{2-(6,6-dimethyl-4,5,6,7-tetrahydro-1H-indazol-3-yl)-1H-indol-6-yl}-N-methylcarbamate]",39
3,"CC(CO)N(C)C(=O)c1ccc2cc(-c3n[nH]c4c3CCC(C)(C)C4)[nH]c2c1 (stereo not drawn) [Example 7, 2-(6,6-dimethyl-4,5,6,7-tetrahydro-1H-indazol-3-yl)-1H-indole-6-carboxylic acid (2-hydroxy-1-methylethyl)methylamide]",39
4,CC1(C)CCc2c(-c3cc4ccc(C(=O)Nc5ccccc5)cc4[nH]3)n[nH]c2C1 [Example 9],334
5,CN(C(=O)c1ccc2cc(-c3n[nH]c4c3CCC(C)(C)C4)[nH]c2c1)c1ccccc1 [Example 10],45
6,CC(C)(C)CNC(=O)c1ccc2cc(-c3n[nH]c4c3CCC(C)(C)C4)[nH]c2c1 [Example 11],36
7,CC(C)CNC(=O)c1ccc2cc(-c3n[nH]c4c3CCC(C)(C)C4)[nH]c2c1 [Example 12],33
8,CC(NC(=O)c1ccc2cc(-c3n[nH]c4c3CCC(C)(C)C4)[nH]c2c1)C(C)(C)C (stereo not drawn) [Example 13],99
9,CN1CCN(C(=O)c2ccc3cc(-c4n[nH]c5c4CCC(C)(C)C5)[nH]c3c2)CC1 [Example 14],40
10,CN(CC(C)(C)C)C(=O)c1ccc2cc(-c3n[nH]c4c3CCC(C)(C)C4)[nH]c2c1 [Example 15],9
11,CC1(C)CCc2c(-c3cc4ccc(C(=O)N5CCC(O)CC5)cc4[nH]3)n[nH]c2C1 [Example 16],25
12,CC(N(C)C(=O)c1ccc2cc(-c3n[nH]c4c3CCC(C)(C)C4)[nH]c2c1)C(C)(C)C (stereo not drawn) [Example 18],45
13,CC1(C)CCc2c(-c3cc4ccc(C(=O)N5CCOCC5)cc4[nH]3)n[nH]c2C1 [Example 19],23
14,CC(CO)NC(=O)c1ccc2cc(-c3n[nH]c4c3CCC(C)(C)C4)[nH]c2c1 (stereo not drawn) [Example 20],47
15,COCC(C)NC(=O)c1ccc2cc(-c3n[nH]c4c3CCC(C)(C)C4)[nH]c2c1 (stereo not drawn) [Example 21],30
16,COCC(C)N(C)C(=O)c1ccc2cc(-c3n[nH]c4c3CCC(C)(C)C4)[nH]c2c1 (stereo not drawn) [Example 22],40
17,CC(C)C(CO)NC(=O)c1ccc2cc(-c3n[nH]c4c3CCC(C)(C)C4)[nH]c2c1 (stereo not drawn) [Example 23],18
18,COCC(NC(=O)c1ccc2cc(-c3n[nH]c4c3CCC(C)(C)C4)[nH]c2c1)C(C)C (stereo not drawn) [Example 24],25
19,CC(C)C(CO)N(C)C(=O)c1ccc2cc(-c3n[nH]c4c3CCC(C)(C)C4)[nH]c2c1 (stereo not drawn) [Example 25],26
20,COCC(C(C)C)N(C)C(=O)c1ccc2cc(-c3n[nH]c4c3CCC(C)(C)C4)[nH]c2c1 (stereo not drawn) [Example 26],85
21,CC1(C)CCc2c(-c3cc4ccc(NC(=O)c5ccccc5)cc4[nH]3)n[nH]c2C1 [Example 27],327
22,CCC(=O)Nc1ccc2cc(-c3n[nH]c4c3CCC(C)(C)C4)[nH]c2c1 [Example 28],201
23,CC1(C)CCc2c(-c3cc4ccc(NC(N)=O)cc4[nH]3)n[nH]c2C1 [Example 29],85
24,CN(C(=O)c1ccccc1)c1ccc2cc(-c3n[nH]c4c3CCC(C)(C)C4)[nH]c2c1 [Example 30],10
25,CN(C(=O)c1cccc(C(F)(F)F)c1)c1ccc2cc(-c3n[nH]c4c3CCC(C)(C)C4)[nH]c2c1 [Example 31],34
26,CN(C(=O)C1CCCC1)c1ccc2cc(-c3n[nH]c4c3CCC(C)(C)C4)[nH]c2c1 [Example 33],11
27,CN(C(=O)C(C)(C)O)c1ccc2cc(-c3n[nH]c4c3CCC(C)(C)C4)[nH]c2c1 [Example 37],8
28,CC(C)CC(=O)N(C)c1ccc2cc(-c3n[nH]c4c3CCC(C)(C)C4)[nH]c2c1 [Example 40],6
29,COC(C)(C)C(=O)N(C)c1ccc2cc(-c3n[nH]c4c3CCC(C)(C)C4)[nH]c2c1 [Example 42],22
30,CN(C(=O)C(O)CO)c1ccc2cc(-c3n[nH]c4c3CCC(C)(C)C4)[nH]c2c1 (stereo not drawn) [Example 43],6

# These reach a lower IC50. Values come first.
row,IC50 [nM],SMILES
1,5,"CCN(C(C)=O)c1ccc2cc(-c3n[nH]c4c3CCC(C)(C)C4)[nH]c2c1 [Example 2, N-[2-(6,6-dimethyl-4,5,6,7-tetrahydro-1H-indazol-3-yl)-1H-indol-6-yl]-N-ethylacetamide]"
2,2,"C[C@@H](C(=O)N(C)c1ccc2cc(-c3n[nH]c4c3CCC(C)(C)C4)[nH]c2c1)N1CCOCC1 [Example 4, (S)—N-[2-(6,6-dimethyl-4,5,6,7-tetrahydro-1H-indazol-3-yl)-1H-indol-6-yl]-N-methyl-2-(morpholin-4-yl)propionamide]"
3,3,"C[C@@H](C(=O)N(C)c1ccc2cc(-c3n[nH]c4c3CCC(C)(C)C4)[nH]c2c1)N1CCOCC1 [Example 5, (S)—N-[2-(6,6-dimethyl-4,5,6,7-tetrahydro-1H-indazol-3-yl)-1H-indol-6-yl]-N-methyl-2-(morpholin-4-yl)propionamide hydrochloride]"
4,2,"CN(C(=O)CN1CCOCC1=O)c1ccc2cc(-c3n[nH]c4c3CCC(C)(C)C4)[nH]c2c1 [Example 6, N-[2-(6,6-dimethyl-4,5,6,7-tetrahydro-1H-indazol-3-yl)-1H-indol-6-yl]-N-methyl-2-(3-oxomorpholin-4-yl)acetamide]"
5,3,"CN(C(=O)CN1CCCCC1=O)c1ccc2cc(-c3n[nH]c4c3CCC(C)(CO)C4)[nH]c2c1 (stereo not drawn) [Example 8, N-[2-(6-hydroxymethyl-6-methyl-4,5,6,7-tetrahydro-1H-indazol-3-yl)-1H-indol-6-yl]-N-methyl-2-(2-oxopiperidin-1-yl)acetamide]"
6,5,CC(C)CN(C)C(=O)c1ccc2cc(-c3n[nH]c4c3CCC(C)(C)C4)[nH]c2c1 [Example 17]
7,4,CCC(=O)N(C)c1ccc2cc(-c3n[nH]c4c3CCC(C)(C)C4)[nH]c2c1 [Example 32]
8,5,CC(O)C(=O)N(C)c1ccc2cc(-c3n[nH]c4c3CCC(C)(C)C4)[nH]c2c1 (stereo not drawn) [Example 34]
9,5,CN(C(=O)CO)c1ccc2cc(-c3n[nH]c4c3CCC(C)(C)C4)[nH]c2c1 [Example 35]
10,< 3,COCC(=O)N(C)c1ccc2cc(-c3n[nH]c4c3CCC(C)(C)C4)[nH]c2c1 [Example 36]
11,5,CCCC(=O)N(C)c1ccc2cc(-c3n[nH]c4c3CCC(C)(C)C4)[nH]c2c1 [Example 38]
12,4,CC(C)C(=O)N(C)c1ccc2cc(-c3n[nH]c4c3CCC(C)(C)C4)[nH]c2c1 [Example 39]
13,4,COC(C)C(=O)N(C)c1ccc2cc(-c3n[nH]c4c3CCC(C)(C)C4)[nH]c2c1 (stereo not drawn) [Example 41]
14,< 3,CCOCC(=O)N(C)c1ccc2cc(-c3n[nH]c4c3CCC(C)(C)C4)[nH]c2c1 [Example 44]
15,< 3,CN(C(=O)COc1ccccc1)c1ccc2cc(-c3n[nH]c4c3CCC(C)(C)C4)[nH]c2c1 [Example 45]

# — US8299070B2, “Indole compounds and pharmaceutical use thereof” (Japan Tobacco Inc., priority 2009, dated 2012)
